Source: US20170334899A1, “AMINO-SUBSTITUTED ISOTHIAZOLES” (Bayer Pharma Aktiengesellschaft, priority 2014, published 2017)

Columns and labels:
Format in all cases: cell-based
NCI-H460 = test: Proliferation assay (crystal violet), NCI-H460; conditions: Homo sapiens, 96 h; NCI-H460 cells; 4 days incubation; crystal violet staining; read-out: IC50 inhibition of proliferation, NCI-H460
Method: (§1) Cultivated tumor cells (cells were ordered from ATCC, except HeLa-MaTu and HeLa-MaTu-ADR, which were ordered from EPO-GmbH, Berlin) were plated at a density of 1000 to 5000 cells/well, depending on the growth rate of the respective cell line, in a 96-well multititer plate in 200 μL of their respective growth medium supplemented 10% fetal calf serum. After 24 hours, the cells of one plate (zero-point plate) were stained with crystal violet (see below), while the medium of the other plates was replaced by fresh culture medium (200 μl), to which the test substances were added in various concentrations (0 μM, as well as in the range of 0.001-10 μM; the final concentration of the solvent dimethyl sulfoxide was 0.5%). The cells were incubated for 4 days in the presence of test substances. Cell proliferation was determined by staining the cells with crystal violet: the cells were fixed by adding 20 μl/measuring point of an 11% glutaric aldehyde solution for 15 minutes at room temperature. After three washing cycles of the fixed cells with water, the plates were dried at room temperature. The cells were stained by adding 100 μl/measuring point of a 0.1% crystal violet solution (pH 3.0). After three washing cycles of the stained cells with water, the plates were dried at room temperature. The dye was dissolved by adding 100 μl/measuring point of a 10% acetic acid solution. Absorbtion was determined by photometry at a wavelength of 595 nm. The change of cell number, in percent, was calculated by normalization of the measured values to the aborbtion values of the zero-point plate (=0%) and the absorbtion of the untreated (0 μm) cells (=100%). The IC50 values were determined by means of a 4 parameter fit.

Caco-2 = test: Proliferation assay (crystal violet), Caco-2; conditions: Homo sapiens, 96 h; Caco-2 cells; 4 days incubation; crystal violet staining; read-out: IC50 inhibition of proliferation, Caco2
Method: as §1

B16F10 = test: Proliferation assay (crystal violet), B16F10; conditions: Mus musculus, B16-F10, 96 h; B16F10 cells; 4 days incubation; crystal violet staining; read-out: IC50 inhibition of proliferation, B16F10
Method: as §1

HeLa-MaTu-ADR = test: Proliferation assay (crystal violet), HeLa-MaTu-ADR; conditions: 96 h; HeLa-MaTu-ADR cells; 4 days incubation; crystal violet staining; read-out: IC50 inhibition of proliferation, HeLa-MaTu-ADR
Method: as §1

DU145 = test: Proliferation assay (crystal violet), DU145; conditions: Homo sapiens, DU-145, 96 h; DU145 cells; 4 days incubation; crystal violet staining; read-out: IC50 inhibition of proliferation, DU145
Method: as §1

Compound | IC50 (NCI-H460) [nM] | IC50 (Caco-2) [nM] | IC50 (B16F10) [nM] | IC50 (HeLa-MaTu-ADR) [nM] | IC50 (DU145) [nM]
Cc1nsc(Nc2cnc3ccccc3n2)c1C(=O)Nc1ccc(OC2CCN(CC(F)(F)F)CC2)nc1 [Example 21, 3-Methyl-5-(quinoxalin-2-ylamino)-N-(6-{[1-(2,2,2-trifluoroethyl)piperidin-4-yl]oxy}-pyridin-3-yl)-1,2-thiazole-4-carboxamide] | 750 | 1400 | 1400 | 880 | 1900
Cc1nsc(Nc2ccc(C#N)cn2)c1C(=O)Nc1ccc(OC2CCN(C(=O)OC(C)(C)C)CC2)nc1 [Example 27, tert-Butyl 4-({5-[({5-[(5-cyanopyridin-2-yl)amino]-3-methyl-1,2-thiazol-4-yl}-carbonyl)amino]pyridin-2-yl}oxy)piperidine-1-carboxylate] | 280 | 410 | 610 | 250 | 680
